These results are taken from US7851474B2, “Dipiperazinyl ketones and related analogues” (Neurogen Corporation, priority 2005, dated 2010).

The target in the experiment is T1, chimeric human H3 receptor (Homo sapiens, UniProt Q9Y5N1, E19D).
T1 construct: made in house; host or cells: Sf9 insect cells (baculovirus infection); P2 membrane preparation
As to the kind of experiment: Chimeric human H3 receptor screening GTP binding assay (inhibition of histamine-stimulated GTP-gamma35S binding, Example 8). The settings on record: 1 h, read-out: percent inhibition of agonist-induced GTP-gammaS binding to H3. Format: biochemical. In outline: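 Data are percent inhibition of the 1 μM histamine-stimulated GTP-gamma35S (125 pM) binding, after non-specific binding (10 uM GTP-gammaS) is subtracted. Test compound at 4 μM. Incubation was 60 min at room temperature with Sf9 membranes bearing receptor plus G-protein subunits, buffer pH 7.4 with 10 μM GDP, and filtration read-out.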
A general note: Binding of GTPγS marks nucleotide exchange on a G protein.

Setting [1] is: Table II, "+" in the column headed Ki, assay of Example 8.
[2] abbreviates: assay described in Example 8, symbol + in column headed Ki of Table II.
The mark [3] stands for this setting: "+" in Ki of Table II, assay of Example 8.

In general, inhibition refers to the share of the control response that was lost under treatment.

SMILES strings stand for the structures. Read-outs that look alike come from different tables or passages of the source.

T1 sequence (Q9Y5N1 with tags, fused parts or gaps E19D): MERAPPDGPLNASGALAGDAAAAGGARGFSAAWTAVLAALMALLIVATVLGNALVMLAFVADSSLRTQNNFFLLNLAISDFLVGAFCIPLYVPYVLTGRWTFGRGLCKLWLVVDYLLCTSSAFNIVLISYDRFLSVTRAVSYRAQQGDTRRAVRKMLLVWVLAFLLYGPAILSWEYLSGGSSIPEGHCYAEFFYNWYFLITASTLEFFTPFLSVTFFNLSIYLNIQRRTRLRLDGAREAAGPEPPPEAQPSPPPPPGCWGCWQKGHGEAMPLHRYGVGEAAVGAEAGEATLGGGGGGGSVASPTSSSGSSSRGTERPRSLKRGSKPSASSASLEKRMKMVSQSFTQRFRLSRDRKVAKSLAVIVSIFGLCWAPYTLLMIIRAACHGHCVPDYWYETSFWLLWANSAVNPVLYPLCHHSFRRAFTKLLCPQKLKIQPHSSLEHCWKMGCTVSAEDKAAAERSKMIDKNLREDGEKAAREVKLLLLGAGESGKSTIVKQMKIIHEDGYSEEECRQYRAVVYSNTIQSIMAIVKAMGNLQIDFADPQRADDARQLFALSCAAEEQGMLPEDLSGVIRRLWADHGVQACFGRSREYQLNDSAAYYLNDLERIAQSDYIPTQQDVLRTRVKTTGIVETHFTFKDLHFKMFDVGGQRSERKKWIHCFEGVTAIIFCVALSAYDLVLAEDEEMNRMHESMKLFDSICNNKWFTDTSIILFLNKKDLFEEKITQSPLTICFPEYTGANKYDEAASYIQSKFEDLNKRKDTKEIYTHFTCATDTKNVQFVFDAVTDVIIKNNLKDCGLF

In the case of `O=C(CN1CCN(C(=O)c2cccc3ccccc23)CC1)N1CCN(C2CCC2)CC1` [Compound 662, 1-cyclobutyl-4-{[4-(1-naphthoyl)piperazin-1-yl]acetyl}piperazine], under setting [1], the inhibition at 4 µM was more than 90%.
Still for that read-out and setting: with `Cc1ccc(C(=O)N2CCN(CC(=O)N3CCN(C4CCC4)CC3)CC2)cc1C` [Compound 734, 1-cyclobutyl-4-{[4-(3,4-dimethylbenzoyl)piperazin-1-yl]acetyl}piperazine] the figure was more than 90%.
For the molecule `O=C(CN1CCN(C(=O)c2c(-c3ccccc3)nnc3ccccc23)CC1)N1CCN(C2CCC2)CC1` [Compound 1090], under “Table II, assay of Example 8, "+" in Ki”, the inhibition at 4 µM is more than 90%.
`COc1ccc(Br)c(OC)c1C(=O)N1CCN(CC(=O)N2CCN(C3CCC3)CC2)CC1` [Compound 290, 1-(3-bromo-2,6-dimethoxybenzoyl)-4-[2-(4-cyclobutylpiperazin-1-yl)-2-oxoethyl]piperazine]: the inhibition at 4 µM under setting [2] was more than 90%.
Take `O=C(CN1CCN(C(=O)C(c2ccccc2)C2CCCC2)CC1)N1CCN(C2CCC2)CC1` (centres unmarked) [Compound 613, 1-cyclobutyl-4-({4-[cyclopentyl(phenyl)acetyl]piperazin-1-yl}acetyl)piperazine]: under setting [1], the inhibition at 4 µM is more than 90%.
Take `Cc1cc(C(=O)N2CCN(CC(=O)N3CCN(C4CCC4)CC3)CC2)cc(Cl)n1` [Compound 276, 1-(2-chloro-6-methylisonicotinoyl)-4-[2-(4-cyclobutylpiperazin-1-yl)-2-oxoethyl]piperazine]: the inhibition at 4 µM under setting [2] is more than 90%.
On to `O=C(CN1CCN(C(=O)c2cccc(F)c2)CC1)N1CCN(C2CCC2)CC1` [Compound 752, 1-cyclobutyl-4-{[4-(3-fluorobenzoyl)piperazin-1-yl]acetyl}piperazine], for which the inhibition at 4 µM under setting [1] was more than 90%.
For `O=C(CN1CCN(C(=O)c2ccc(Cl)s2)CC1)N1CCN(C2CCC2)CC1` [Compound 414, 1-[(5-chloro-2-thienyl)carbonyl]-4-[2-(4-cyclobutylpiperazin-1-yl)-2-oxoethyl]piperazine], the inhibition at 4 µM under setting [2] was more than 90%.
Take `CCCn1c(C(=O)N2CCN(CC(=O)N3CCN(C4CCC4)CC3)CC2)cc2ccccc21` [Compound 889, 2-({4-[2-(4-cyclobutylpiperazin-1-yl)-2-oxoethyl]piperazin-1-yl}carbonyl)-1-propyl-1H-indole]: where the note is “Table II "Ki", symbol "+": assay described in Example 8”, the inhibition at 4 µM is more than 90%.
As for `Cc1cc(C(=O)N2CCN(CC(=O)N3CCN(C4CCC4)CC3)CC2)c(C)o1` [Compound 688, 1-cyclobutyl-4-{[4-(2,5-dimethyl-3-furoyl)piperazin-1-yl]acetyl}piperazine], under setting [1], the inhibition at 4 µM is more than 90%.
Turning to `O=C(CN1CCN(C(=O)c2ccc(Cl)nc2)CC1)N1CCN(C2CCC2)CC1` [Compound 416, 1-[(6-chloropyridin-3-yl)carbonyl]-4-[2-(4-cyclobutylpiperazin-1-yl)-2-oxoethyl]piperazine], the inhibition at 4 µM under setting [2] was more than 90%.
For the molecule `O=C(Cc1cccc(C(F)(F)F)c1)N1CCN(CC(=O)N2CCN(C3CCC3)CC2)CC1` [Compound 627, 1-cyclobutyl-4-[(4-{[3-(trifluoromethyl)phenyl]acetyl}piperazin-1-yl)acetyl]piperazine], the inhibition at 4 µM under setting [1] was more than 90%.
Take `O=C(CN1CCN(C(=O)c2ccc(Oc3cc(Cl)cc(Cl)c3)o2)CC1)N1CCN(C2CCC2)CC1` [Compound 608, 1-cyclobutyl-4-({4-[5-(3,5-dichlorophenoxy)-2-furoyl]piperazin-1-yl}acetyl)piperazine]: under setting [1], the inhibition at 4 µM is more than 90%.
As for `COc1cc(C(=O)N2CCN(CC(=O)N3CCN(C4CCC4)CC3)CC2)cc(OC)c1OC` [Compound 724, 1-cyclobutyl-4-{[4-(3,4,5-trimethoxybenzoyl)piperazin-1-yl]acetyl}piperazine], under setting [1], the inhibition at 4 µM is more than 90%.
For `O=C(/C=C/c1ccccc1C(F)(F)F)N1CCN(CC(=O)N2CCN(C3CCC3)CC2)CC1` [Compound 614, 1-cyclobutyl-4-[(4-{(2E)-3-[2-(trifluoromethyl)phenyl]prop-2-enoyl}piperazin-1-yl)acetyl]piperazine], the inhibition at 4 µM under setting [1] was more than 90%.
For the molecule `Cc1ccccc1CC(=O)N1CCN(CC(=O)N2CCN(C3CCC3)CC2)CC1` [Compound 539, 1-cyclobutyl-4-({4-[(2-methylphenyl)acetyl]piperazin-1-yl}acetyl)piperazine], the inhibition at 4 µM under setting [3] was more than 90%.
`O=C(CN1CCN(C(=O)c2ccc(F)cc2)CC1)N1CCN(C2CCC2)CC1` [Compound 772, 1-cyclobutyl-4-{[4-(4-fluorobenzoyl)piperazin-1-yl]acetyl}piperazine]: under setting [1], the inhibition at 4 µM is more than 90%.
Take `O=C(/C=C/c1ccc(-c2ccccc2)cc1)N1CCN(CC(=O)N2CCN(C3CCC3)CC2)CC1` [Compound 394, 1-[(2E)-3-biphenyl-4-ylprop-2-enoyl]-4-[2-(4-cyclobutylpiperazin-1-yl)-2-oxoethyl]piperazine]: the inhibition at 4 µM under setting [2] was more than 90%.
In the case of `O=C(CN1CCN(C(=O)C2COc3ccccc3O2)CC1)N1CCN(C2CCC2)CC1` (centres unmarked) [Compound 668, 1-cyclobutyl-4-{[4-(2,3-dihydro-1,4-benzodioxin-2-ylcarbonyl)piperazin-1-yl]acetyl}piperazine], the inhibition at 4 µM under setting [1] was more than 90%.
On the same count and under the same terms, then `CCC(C(=O)N1CCN(CC(=O)N2CCN(C3CCC3)CC2)CC1)c1ccc(OC)cc1` (centres unmarked) [Compound 575, 1-cyclobutyl-4-({4-[2-(4-methoxyphenyl)butanoyl]piperazin-1-yl}acetyl)piperazine], with more than 90%; and `O=C(CN1CCN(C(=O)C(c2ccccc2)C2CCCCC2)CC1)N1CCN(C2CCC2)CC1` (centres unmarked) [Compound 612, 1-cyclobutyl-4-({4-[cyclohehexyl(phenyl)acetyl]piperazin-1-yl}acetyl)piperazine], with more than 90%.
For the molecule `O=C(CN1CCN(C(=O)c2cccnc2Oc2ccccc2)CC1)N1CCN(C2CCC2)CC1` [Compound 542, 1-cyclobutyl-4-({4-[(2-phenoxypyridin-3-yl)carbonyl]piperazin-1-yl}acetyl)piperazine], the inhibition at 4 µM under setting [3] was more than 90%.
For the molecule `CCOc1ccc(Br)cc1/C=C/C(=O)N1CCN(CC(=O)N2CCN(C3CCC3)CC2)CC1` [Compound 392, 1-[(2E)-3-(5-bromo-2-ethoxyphenyl)prop-2-enoyl]-4-[2-(4-cyclobutylpiperazin-1-yl)-2-oxoethyl]piperazine], the inhibition at 4 µM under setting [2] was more than 90%.
For `Cc1cc(C(=O)N2CCN(CC(=O)N3CCN(C4CCC4)CC3)CC2)nn1C` [Compound 498, 1-cyclobutyl-4-({4-[(1,5-dimethyl-1H-pyrazol-3-yl)carbonyl]piperazin-1-yl}acetyl)piperazine], the inhibition at 4 µM under setting [3] is more than 90%.
Take `Cc1onc(-c2c(Cl)cccc2Cl)c1C(=O)N1CCN(CC(=O)N2CCN(C3CCC3)CC2)CC1` [Compound 624, 1-cyclobutyl-4-[(4-{[3-(2,6-dichlorophenyl)-5-methylisoxazol-4-yl]carbonyl}piperazin-1-yl)acetyl]piperazine]: the inhibition at 4 µM under setting [1] was more than 90%.
For `O=C(CN1CCN(C(=O)c2ccc(F)c(Br)c2)CC1)N1CCN(C2CCC2)CC1` [Compound 291, 1-(3-bromo-4-fluorobenzoyl)-4-[2-(4-cyclobutylpiperazin-1-yl)-2-oxoethyl]piperazine], under setting [2], the inhibition at 4 µM was more than 90%.
As to `COc1cc(C(=O)N2CCN(CC(=O)N3CCN(C4CCC4)CC3)CC2)cc(Cl)n1` [Compound 275, 1-(2-chloro-6-methoxyisonicotinoyl)-4-[2-(4-cyclobutylpiperazin-1-yl)-2-oxoethyl]piperazine], the inhibition at 4 µM under setting [2] is more than 90%.
As for `O=C(Cc1cccc(Oc2ccccc2)c1)N1CCN(CC(=O)N2CCN(C3CCC3)CC2)CC1` [Compound 556, 1-cyclobutyl-4-({4-[(3-phenoxyphenyl)acetyl]piperazin-1-yl}acetyl)piperazine], the inhibition at 4 µM under setting [3] was more than 90%.
On to `O=C(COc1ccc(Cl)c(Cl)c1)N1CCN(CC(=O)N2CCN(C3CCC3)CC2)CC1` [Compound 545, 1-cyclobutyl-4-({4-[(3,4-dichlorophenoxy)acetyl]piperazin-1-yl}acetyl)piperazine], for which, under setting [3], the inhibition at 4 µM was more than 90%.
For the molecule `O=C(Cc1cccc(Br)c1)N1CCN(CC(=O)N2CCN(C3CCC3)CC2)CC1` [Compound 396, 1-[(3-bromophenyl)acetyl]-4-[2-(4-cyclobutylpiperazin-1-yl)-2-oxoethyl]piperazine], under setting [2], the inhibition at 4 µM was more than 90%.
As for `O=C(CN1CCN(C(=O)c2c(F)cccc2F)CC1)N1CCN(C2CCC2)CC1` [Compound 693, 1-cyclobutyl-4-{[4-(2,6-difluorobenzoyl)piperazin-1-yl]acetyl}piperazine], the inhibition at 4 µM under setting [1] is more than 90%.
Take `COc1cccc(CC(=O)N2CCN(CC(=O)N3CCN(C4CCC4)CC3)CC2)c1OC` [Compound 502, 1-cyclobutyl-4-({4-[(2,3-dimethoxyphenyl)acetyl]piperazin-1-yl}acetyl)piperazine]: under setting [3], the inhibition at 4 µM is more than 90%.
The same measure, in the same setting: then `O=C(Cc1c(F)cccc1F)N1CCN(CC(=O)N2CCN(C3CCC3)CC2)CC1` [Compound 512, 1-cyclobutyl-4-({4-[(2,6-difluorophenyl)acetyl]piperazin-1-yl}acetyl)piperazine], with more than 90%; and `CC(Oc1ccc(Cl)cc1Cl)C(=O)N1CCN(CC(=O)N2CCN(C3CCC3)CC2)CC1` (centres unmarked) [Compound 572, 1-cyclobutyl-4-({4-[2-(2,4-dichlorophenoxy)propanoyl]piperazin-1-yl}acetyl)piperazine], with more than 90%.
In the case of `O=C(Cc1ccccc1Cl)N1CCN(CC(=O)N2CCN(C3CCC3)CC2)CC1` [Compound 384, 1-[(2-chlorophenyl)acetyl]-4-[2-(4-cyclobutylpiperazin-1-yl)-2-oxoethyl]piperazine], the inhibition at 4 µM under setting [2] is more than 90%.
